Source: patent US4112228A, “7-(D-α-Hydroxy-2-arylacetamido)-3-(2-carboxyalkyl-2,3-dihydro-s-tri azolo-[4,3-b]pyridazin-3-on-6-ylthiomethyl)-3-cephem-4-carboxylic acids and derivatives” (priority 1977, dated 1978)
Read-outs that look alike come from different tables or passages of the source.

Legend:
S. paratyphi = assay: MIC by Steers' agar dilution method; settings: Salmonella enterica
Urinary recovery in rats = type: in vivo; settings: rat, urine, sc 10 mg./kg., 0-24 Hrs.
S. typhimurium = assay: MIC by Steers' agar dilution method; settings: Salmonella enterica
Pr. morganii = assay: MIC by Steers' agar dilution method; settings: Morganella morganii
S. pyogenes = assay: MIC by Steers' agar dilution method
Serr. marcescens = assay: MIC by Steers' agar dilution method; settings: Serratia marcescens
D. pneumoniae = assay: MIC by Steers' agar dilution method
K. pneumoniae A9977 = assay: Standard experimental infection in mice; type: in vivo; settings: for ED50: Klebsiella pneumoniae, A9977, read-out: PD50
[1] = test system: E. cloacae A20464 (El-19); assay: Standard experimental infection in mice; type: in vivo; settings: Run C-811
Sal. typhosa = assay: MIC by Steers' agar dilution method; type: cell-based; settings: St-1; MHA; Table 3
Pr. mirabilis = assay: MIC by Steers' agar dilution method; settings: Proteus mirabilis
Ps. aeruginosa = assay: MIC by Steers' agar dilution method; settings: Pseudomonas aeruginosa
Kl. pneumoniae = assay: MIC by Steers' agar dilution method; type: cell-based; settings: Klebsiella pneumoniae
[2] = strain not given (1st of 2), MHA, Example 10
[3] = strain not named (2nd of 2), MHA, Example 10

Cn1nnnc1SCC1=C(C(=O)O)N2C(=O)[C@@H](NC(=O)[C@H](O)c3ccccc3)[C@H]2SC1 [Cefamandole, cefamandole, reference compound]
0.2 µg/mL: MIC (S. paratyphi) | MIC (S. typhimurium) | MIC (Pr. morganii; Pg-5 A15166, MHA, Table 3) | MIC (D. pneumoniae; Dp-2 Type I Neufeld, MHA, Table 2) | MIC (D. pneumoniae; Dp-3 Type III, MHA, Table 2) | MIC (D. pneumoniae; Dp-4 A9585, MHA, Table 2) | MIC (D. pneumoniae; Dp-5 A15069, MHA, Table 2) | MIC (D. pneumoniae; Dp-6 A20167, MHA, Table 2) | MIC (D. pneumoniae; Dp-7 A20759, MHA, Table 2) | MIC (D. pneumoniae; Dp-8 A20769, MHA, Table 2) | MIC (D. pneumoniae; Dp-9 A20770, MHA, Table 2) | MIC (D. pneumoniae; Streptococcus pneumoniae) | MIC (Sal. typhosa) | MIC (Pr. mirabilis; Pm-1 A9554, NA, Table 4) | MIC (Pr. mirabilis; [3]) | MIC (Kl. pneumoniae; A9977, MHA, Table 1)
50 µg/mL: MIC (Serr. marcescens; Sm-1 A20019 (β-lactamase), HIA, Table 4) | MIC (Serr. marcescens; Sm-1 A20019 (β-lactamase), NA, Table 4) | MIC (Serr. marcescens; Sm-3 A20336, HIA, Table 4) | MIC (Serr. marcescens; Sm-3 A20336, NA, Table 4) | MIC (Serr. marcescens; Sm-9 A20333, MHA, Table 3) | MIC (Serr. marcescens; Sm-10 A20334, MHA, Table 3) | MIC (Serr. marcescens; Sm-12 A20461, MHA, Table 3)
6.25 mg/kg: ED50 (K. pneumoniae A9977; Table 6)
0.8 mg/kg: ED50 ([1]; Enterobacter cloacae, read-out: PD50)
0.1 µg/mL: MIC (S. pyogenes) | MIC (S. pyogenes; Sp-2 Dick, MHA, Table 2) | MIC (S. pyogenes; Sp-3 A9604, MHA, Table 2) | MIC (S. pyogenes; Sp-5 A15040, MHA, Table 2) | MIC (S. pyogenes; Sp-6 A20066, MHA, Table 2) | MIC (S. pyogenes; Sp-7 Dig 7, MHA, Table 2) | MIC (S. pyogenes; Sp-8 A15041, MHA, Table 2) | MIC (S. pyogenes; Sp-9 A20201, MHA, Table 2) | MIC (S. pyogenes; Sp-10 A20202, MHA, Table 2) | MIC (S. pyogenes; Streptococcus pyogenes)
4/5: No. of survivors/No. tested ([1]; 1.6 mg./kg.)
0.8 µg/mL: MIC (Pr. morganii; A20031, MHA, Table 1) | MIC (Pr. morganii; Pg-2 A20031, HIA, Table 4) | MIC (Pr. morganii; Pg-2 A20031, MHA, Table 4) | MIC (Pr. morganii; Pg-7 A20457, MHA, Table 3) | MIC (Pr. morganii; Pg-8 A15153, MHA, Table 3) | MIC (Pr. morganii; [3]) | MIC (Pr. mirabilis; Pm-2 A9900, MHA, Table 4) | MIC (Kl. pneumoniae; A9867, MHA, Table 1) | MIC (Kl. pneumoniae; A15130, MHA, Table 1) | MIC (Kl. pneumoniae; Kp-1 D11, MHA, Table 3) | MIC (Kl. pneumoniae; Kp-3 A9977, HIA, Table 4) | MIC (Kl. pneumoniae; Kp-3 A9977, MHA, Table 3) | MIC (Kl. pneumoniae; Kp-3 A9977, MHA, Table 4) | MIC (Kl. pneumoniae; Kp-4 A15130, HIA, Table 4) | MIC (Kl. pneumoniae; Kp-4 A15130, MHA, Table 3) | MIC (Kl. pneumoniae; Kp-4 A15130, MHA, Table 4) | MIC (Kl. pneumoniae; Kp-4 A15130, NA, Table 4) | MIC (Kl. pneumoniae; Kp-7 A9867, MHA, Table 3) | MIC (Kl. pneumoniae; strain not named (2nd of 4), MHA, Example 10) | MIC (Kl. pneumoniae; strain not named (3rd of 4), MHA, Example 10) | MIC (Kl. pneumoniae; strain not named (4th of 4), MHA, Example 10)
100 µg/mL: MIC (Serr. marcescens; A20019, MHA, Table 1) | MIC (Serr. marcescens; MHA, Example 10) | MIC (Serr. marcescens; Sm-1 A20019 (β-lactamase), MHA, Table 4) | MIC (Serr. marcescens; Sm-3 A20336, MHA, Table 4)
3.1 µg/mL: MIC (Pr. morganii; Pg-6 A20455 (β-lactamase), HIA, Table 4) | MIC (Pr. morganii; Pg-9 A15149, MHA, Table 3) | MIC (Pr. mirabilis; Pm-3 A20119, MHA, Table 3) | MIC (Kl. pneumoniae; A9678, MHA, Table 1) | MIC (Kl. pneumoniae; Kp-10 A20328, MHA, Table 3) | MIC (Kl. pneumoniae; strain not named (1st of 4), MHA, Example 10)
25 µg/mL: MIC (Serr. marcescens; Sm-1 A20019, MHA, Table 3) | MIC (Serr. marcescens; Sm-11 A20459, MHA, Table 3)
58.3%: dose excreted at 24 h (Urinary recovery in rats)
6.3 µg/mL: MIC (Kl. pneumoniae; Kp-12 A21228, MHA, Table 3)
12.5 µg/mL: MIC (Serr. marcescens; Sm-2 A20335, MHA, Table 3) | MIC (Serr. marcescens; Sm-3 A20336, MHA, Table 3) | MIC (Serr. marcescens; Sm-4 A20442, MHA, Table 3) | MIC (Serr. marcescens; Sm-5 A20222, MHA, Table 3) | MIC (Serr. marcescens; Sm-6 A20460, MHA, Table 3) | MIC (Kl. pneumoniae; Kp-8 A20680, MHA, Table 3) | MIC (Kl. pneumoniae; Kp-9 A20636, MHA, Table 3) | MIC (Kl. pneumoniae; Kp-11 A20330, MHA, Table 3)
0.4 µg/mL: MIC (Pr. morganii; Pg-2 A20031, NA, Table 4) | MIC (Pr. mirabilis; A9554, MHA, Table 1) | MIC (Pr. mirabilis; Pm-1 A9554, HIA, Table 4) | MIC (Pr. mirabilis; Pm-2 A9900, HIA, Table 4) | MIC (Pr. mirabilis; Pm-2 A9900, NA, Table 4) | MIC (Kl. pneumoniae; Kp-3 A9977, NA, Table 4)
5/5: No. of survivors/No. tested (K. pneumoniae A9977; 25 mg./kg., Table 6) | No. of survivors/No. tested (K. pneumoniae A9977; Run C-805, 3×10^3 LD50, single sc, 25 mg./kg.) | No. of survivors/No. tested ([1]; 6.3 mg./kg.) | No. of survivors/No. tested ([1]; 100 mg./kg.)
1.6 µg/mL: MIC (Pr. morganii; Pg-2 A20031, MHA, Table 3) | MIC (Pr. morganii; Pg-3 A9636, MHA, Table 3) | MIC (Pr. morganii; Pg-6 A20455 (β-lactamase), MHA, Table 4) | MIC (Pr. morganii; Pg-6 A20455 (β-lactamase), NA, Table 4) | MIC (Pr. morganii; Pg-6 A20455, MHA, Table 3) | MIC (Pr. mirabilis; Pm-2 A9900, MHA, Table 3) | MIC (Pr. mirabilis; Pm-4 A20454, MHA, Table 3) | MIC (Pr. mirabilis; Pm-6 A21222, MHA, Table 3) | MIC (Kl. pneumoniae; Kp-2 A9678, MHA, Table 3)
> 100 µg/mL: MIC (Pr. morganii; A9553, MHA, Table 1) | MIC (Pr. morganii; Pg-1 A9553 (β-lactamase), HIA, Table 4) | MIC (Pr. morganii; Pg-1 A9553 (β-lactamase), MHA, Table 4) | MIC (Pr. morganii; Pg-1 A9553 (β-lactamase), NA, Table 4) | MIC (Pr. morganii; Pg-1 A9553, MHA, Table 3) | MIC (Pr. morganii; [2]) | MIC (Ps. aeruginosa; A9843, MHA, Table 1) | MIC (Ps. aeruginosa; A9930, MHA, Table 1) | MIC (Ps. aeruginosa; Pa-3 A9930, HIA, Table 4) | MIC (Ps. aeruginosa; Pa-3 A9930, MHA, Table 4) | MIC (Ps. aeruginosa; Pa-3 A9930, NA, Table 4) | MIC (Ps. aeruginosa; [2]) | MIC (Ps. aeruginosa; [3])
9.4 mg/kg: ED50 (K. pneumoniae A9977; Run C-805, 3×10^3 LD50, single sc)
0/5: No. of survivors/No. tested (K. pneumoniae A9977; 0.4 mg./kg., Table 6) | No. of survivors/No. tested (K. pneumoniae A9977; 1.6 mg./kg., Table 6) | No. of survivors/No. tested (K. pneumoniae A9977; Run C-805, 3×10^3 LD50, single sc, 0.4 mg./kg.) | No. of survivors/No. tested (K. pneumoniae A9977; Run C-805, 3×10^3 LD50, single sc, 1.6 mg./kg.)
1/5: No. of survivors/No. tested (K. pneumoniae A9977; 6.3 mg./kg., Table 6) | No. of survivors/No. tested (K. pneumoniae A9977; Run C-805, 3×10^3 LD50, single sc, 6.3 mg./kg.) | No. of survivors/No. tested ([1]; 0.4 mg./kg.)
